10 molecules from US5972923A, “Methods and compositions to enhance the cytoprotective effects of polycyclic phenolic compounds through the synergistic interaction with anti-oxidants” (priority 1998, dated 1999) can be followed below.

Like-named read-outs stand apart in the source and are kept apart here.

Series [1] has as its system SK-N-SH cells. Description: Live cell number of SK-N-SH cells with βAP 25-35 induced toxicity (trypan blue exclusion), 17β-estradiol and anti-oxidants. Particulars: for interaction with estrogen: combination with estrogen.
Method: The assay utilized the human neuroblastoma cells SK-N-SH.
Materials: Lyophilized βAP 25-35 (1 mg) (Bachem, Torrance, Calif.) was initially dissolved in 200 μl ddH20 and with the addition of 800 μl of PBS, rapid aggregation was observed. […] Lipoic acid (thiotic acid), taurine (2-aminoethanoic acid), and ascorbic acid were initially dissolved in cell culture media and used at the concentrations indicated. Unless otherwise noted, materials were obtained from Sigma Chemical Corp SK-N-SH Neuroblastoma Cell Culture: SK-N-SH neuroblastoma cells were obtained from American Type Tissue Collection (Rockville, Md.). Cell cultures were grown to confluency in RPMI-1640 media (Fisher Scientific, Inc.) supplemented with 10% charcoal/dextran-treated fetal bovine serum (FBS), (Hyclone®), Logan, Utah), 100 U/ml penicillin G and 100 mg/ml streptomycin (Sigma Chemical Corp.) in monolayers in Corning 150 cm^2 flasks (Fisher Scientific, Inc.) at 37° C. under 5% CO2, 95% air. Media was changed three times weekly.
(a) SK-N-SH cells used in the following experiments were in passes 4 to 12. The growth media was initially decanted and the cells were rinsed with 0.02% EDTA for 30 min at 37° C. Cells were then counted on a Neubauer hemacytometer (Fisher Scientific) and resuspended in appropriate media. Studies were initiated by plating 1×10^6 cells per well in 24 well plates, allowing attachment in regular media and then decanting that media and replacing with the appropriate treatment after 4 h.
SK-N-SH cell viability was determined utilizing the trypan blue exclusion method (Black and Berenbaum, 1964; Tennant, 1964). After 72 h of incubation, treatment media was decanted and cells were lifted by incubating with 0.2 ml 0.02% EDTA for 30 min at 37° C. Cells were suspended by repeated pipetting. One-hundred μl aliquots from each cell suspension were incubated with 100 μl aliquots of 0.4 % trypan blue stain for 5 min at room temperature. All suspensions were counted on a Neubauer hemacytometer within 10 min of addition of trypan blue stain. Two independent counts of live and dead cells were made for each aliquot.
Statistics: The significant treatment effects on cell viability were determined using ANOVA followed by Scheffe's post hoc test, with significance determined at p<0.05. For dose-response evaluations, EC50 values were calculated by randomly assigning cell counts at the indicated doses to generate 3-5 lines per treatment and determining the average value for those lines. Mann-Whitney Rank Sum non-parametric analysis were used on EC50 values because the variances for the standard deviation were not equivalent.
Series [2] deals with rat primary cortical neurons. Description: Neuroprotection against βAP 25-35 in rat primary cortical neurons (LIVE/DEAD kit). The settings on record: for EC50: Rattus norvegicus, Primary cortical neuron. How it is done:
Primary Rat Cortical Culture: Primary neuronal cultures were prepared according to the method used by Chandler et al. Alcoholism: Clinical and Experimental Research, 17 (1993) 54-60.
Once treatments were added, primary cultures were incubated for an additional 24 h and viability determined using the LIVE/DEAD® viability/cytotoxicity kit (Molecular Probes, Eugene, Oreg.) according to manufacturer's instructions. Live cells are distinguished by the presence of intracellular esterase activity which cleaves the calcein AM dye, producing a bright green fluorescence when excited. Ethidium homodimer enters cells with damaged membranes, and upon binding to nucleic acids, produces a red fluorescence. Both dyes are excited at 485 nm, and cultures plates were viewed with a fluorescent microscope (Nikon Diaphot-300). Three random fields were photographed, and the average number of live cells per field was determined by counting the number of bright green cells.

Series [3] deals with HT-22 cells. Description: Effects of estratrienes with and without glutathione on neurotoxicity of βAP 25-35 in HT-22 cells. The settings on record: for decrease in cell viability: β-AP (25-35); for EC50: Mus musculus; for neuroprotection: concurrent treatment with βAP 25-35.
Method: Experiments were initiated by plating cells in Nunc^X 24 well plate cells were allowed to attach for 4 h before treatment. […] After 48 h cells were suspended and viability determined using the trypan blue dye exclusion method (Tennant 1964). Steroids and βAP were prepared as previously described (Green et al. 1996). ED50 values were analyzed by a two way Analysis of Variance. Differences among effects were determined by a Scheffe's post hoc analysis with a p<0.05 considered significant. […] Data are normalized to the βAP free control group as 100% protection and the βAP alone group as 0% protection.
In series [4] the test system is HT-22 cells. The experiment in a line: Effects of 17β-estradiol and its BSA conjugate on βAP 25-35 induced toxicity on HT-22 cells (trypan blue). The settings on record: for Live Cell Number ± SEM: 3.25 μM GSH, 48 h.
Method: Experiments were initiated by plating cells in Nunc^X 24 well plate and cells were allowed to attach for 4 h before treatment.
Series [5] relates to SK-N-SH cells. Description: Dose response of neuroprotection by GSH or 17β-estradiol against βAP 25-35 in SK-N-SH cells (trypan blue). Format: cell-based, human. The settings on record: for EC50: Homo sapiens, SK-N-SH. How it is done:
Media was changed three times weekly.
Cells were suspended by repeated pipetting.
After 72 hours incubation, live cells were determined with Trypan Blue exclusion.
After 72 hours incubation, the cells were stained with Trypan Blue. […] (FIG. 3).

The mark [6] stands for this setting: βAP 25-35 (20 μM) + TRT (anti-oxidant), 72 h.
The mark [7] stands for this setting: βAP 25-35 (20 μM) + βE2 + TRT (anti-oxidant), 72 h.
Setting [8] is: HT-22, read-out: ED50, absence of GSH.
The mark [9] stands for this setting: HT-22, read-out: ED50, presence of GSH.

Regarding `O=C(O)CCCCC1CCSS1` (stereo not drawn) [Lipoic Acid, Lipoic acid], the interaction with estrogen entry in series [1] is recorded as “no apparent interactions”. For the same molecule, the live cell number was 406 ± 7 in series [1] (setting [6]) and 416 ± 10 in series [1] (setting [7]).
“βAP 25-35: neurotoxic β-amyloid protein, a peptide of 10 amino acids (amino acids 25-35) (GSNKGAIIGLM; Amyloid-beta protein 42; UniProt P05067 696-706, looked up, fragment)”: in series [2] (βAP 25-35 (10 μM), absence of GSH, 24 h), the “reduction in the average number of viable cells per field” value turned out to be 39%. Also, in series [3] (exposure to βAP 25-35), the cells killed was 50-60%. Besides, in series [3] (absence of GSH), the “decrease in cell viability” value is 54±4%. In addition, the live cell number came out at 118 ± 9 in series [1] (βAP alone, Ascorbic Acid column); 331 ± 17 in series [1] (βAP alone, GSH); 331 ± 17 in series [1] (βAP alone, GSSG column); 408 ± 10 in series [1] (βAP alone, Lipoic Acid column); 408 ± 10 in series [1] (βAP alone, Taurine column); 366 ± 24 in series [1] (βAP alone, Tocopherol column). Moreover, in series [4] (βAP (20 μM) alone), the “Live Cell Number ± SEM” value is given as 189 ± 11 ×10^3 cells.
Regarding `C[C@]12CC[C@@H]3c4ccc(O)cc4CC[C@H]3[C@@H]1CC[C@H]2O` [α-estradiol, 17 α-estradiol], the EC50 in series [3] (setting [8]) was 1010 nM; in series [3] (setting [9]) it was 6 nM. Moreover, in series [3], the neuroprotection entry was “dose-dependent neuroprotection”. In addition, the synergistic effect entry in series [3] (with GSH, FIG. 5) is listed as “marked synergistic effect”.
For `NCCS(=O)(=O)O` [Taurine, 2-aminoethanoic acid], in series [1], the interaction with estrogen result is on record as “no apparent interactions”. In addition, the figures for the live cell number in series [1] (setting [6]) and in series [1] (setting [7]) were 402 ± 9 and 439 ± 11, respectively.
Consider `C[C@]12CC[C@@H]3c4ccc(O)cc4CC[C@H]3[C@@H]1CC[C@@H]2O` [17β-estradiol], for which the EC50 in series [2] (absence of GSH) came out at 68.1 ± 79 nM; in series [2] (presence of GSH), 4.3 ± 5.9 nM; in series [5] (72 h, read-out: ED50 of 17β-estradiol, Aβ 25-35 (20 μM), absence of glutathione, 72 h) it was 100 nM; in series [5] (72 h, read-out: ED50 of 17β-estradiol, Aβ 25-35 (20 μM), presence of glutathione (3.25 μM), 72 h) it was 0.02 nM; in series [5] (read-out: EC50 (17β-estradiol dose response, FIG. 3), βAP 25-35 (20 μM), without GSH) it was 126 ± 87.8 nM. The neuroprotection result in series [3] is recorded as “dose-dependent neuroprotection”; in series [5] (200 nM 17β-estradiol, absence of glutathione), “Neuroprotection was observed”. For the same molecule, the live cell number in series [1] (βAP + βE2, Ascorbic Acid column) turned out to be 144 ± 9; in series [1] (βAP + βE2, GSH column), 357 ± 19; in series [1] (βAP + βE2, GSSG column), 357 ± 19.
Regarding “17β-estradiol-6-(carboxymethyl) oxime: BSA [β17-E2:BSA]”, in series [4] (BSA conjugate containing 20 μM 17β-estradiol, presence of GSH), the “ability to protect HT22 cells from βAP (25-35) toxicity” value is “abolished the ability of the steroid to protect HT22 cells”. Further, the “Live Cell Number ± SEM” value in series [4] (βAP (20 μM) + 20 μM β17-E2:BSA) is listed as 216 ± 17 ×10^3 cells.
For `O=C1O[C@H]([C@@H](O)CO)C(O)=C1O` [Ascorbic Acid, ascorbic acid], in series [1], the interaction with estrogen entry is recorded as “no apparent interactions”. Moreover, the live cell number amounted to 124 ± 6 in series [1] (setting [6]) and 188 ± 11 in series [1] (setting [7]).
With `N[C@@H](CCC(=O)N[C@@H](CS)C(=O)NCC(=O)O)C(=O)O` [GSH, glutathione], the “effect on β-AP (25-35) induced toxicity” value in series [3] (dose of GSH used in these studies, by itself) is on record as “no effect”. The “decrease in cell viability” value in series [3] (presence of 3.25 pM GSH (so in the source)) stood at 55±3%. For the same molecule, the live cell number turned out to be 369 ± 7 in series [1] (setting [6]) and 534 ± 16 in series [1] (setting [7]). For the same molecule, the “protection from β-AP toxicity” value in series [5] (GSH 325 μM) is listed as “significant protection”. Further, the EC50 in series [5] (72 h, read-out: ED50 of glutathione, βAP 25-35 (20 μM), absence of 17β-estradiol, 72 h) was found to be 32500 nM; in series [5] (72 h, read-out: ED50 of glutathione, βAP 25-35 (20 μM), presence of 17β-estradiol (2 nM), 72 h) it was 325 nM; in series [5] (read-out: EC50 (GSH dose response, FIG. 2), βAP 25-35 (20 μM), without 17β-estradiol) it was 82500 ± 60400 nM; in series [5] (read-out: EC50 (GSH dose response, FIG. 2), βAP 25-35 + 17β-estradiol (2 nM)) it was 41 ± 25 nM. Also, in series [5] (glutathione 3.25 μM, absence of 17β-estradiol), the neuroprotective effect entry is “little neuroprotective effect”. The “fold greater neuroprotectivity than with glutathione alone” value in series [5] (with 17β-estradiol (2 nM)) was determined as 1000 fold.
As to `CC(=O)Oc1c(C)c(C)c2c(c1C)CCC(C)(CCCC(C)CCCC(C)CCCC(C)C)O2` (stereo not drawn) [Tocopherol, α-tocopherol acetate], the interaction with estrogen result in series [1] is “no apparent interactions”. Besides, the live cell number in series [1] (setting [6]) amounted to 448 ± 12; in series [1] (setting [7]), 456 ± 14.
Regarding `C[C@@]12CCC[C@H]1[C@@H]1CCc3cc(O)ccc3[C@H]1CC2` [E-3-ol, estratriene-3-ol], the EC50 is 3680 nM in series [3] (setting [8]) and 14 nM in series [3] (setting [9]).
